The term AC50 denotes the midpoint of the concentration-response curve, whichever way the signal moves. The term IC50 denotes the concentration at which inhibition is half-maximal. As usually defined, the Ki is the equilibrium dissociation constant of an inhibitor or competing ligand from its target. For orientation: EC50 means the concentration needed to bring the measured effect to its halfway point.

This is an account of results in ChEMBL document CHEMBL1201862, “PubChem BioAssay data set” (2004).

Structures are written as SMILES. Active and inactive are the calls of the source.

Test [1] addresses Heat shock protein HSP 90-alpha (Homo sapiens, UniProt P07900). In kind it is functional, organism-based.
Test [2] concerns the target Sphingosine 1-phosphate receptor 4 (Homo sapiens, UniProt O95977). The test can be described thus: Fluorescence dose response cell-based high throughput screening assay for antagonists of the Sphingosine 1-Phosphate Receptor 4 (S1P4). [Related pubchem assays: 1524 (Confirmation in triplicates.), 1510 (Primary screen.)]. The test is classed as functional.
Test [3] addresses T1, Tyrosyl-DNA phosphodiesterase 2 (Homo sapiens, UniProt O95551).
T1 sequence (O95551 whole entry): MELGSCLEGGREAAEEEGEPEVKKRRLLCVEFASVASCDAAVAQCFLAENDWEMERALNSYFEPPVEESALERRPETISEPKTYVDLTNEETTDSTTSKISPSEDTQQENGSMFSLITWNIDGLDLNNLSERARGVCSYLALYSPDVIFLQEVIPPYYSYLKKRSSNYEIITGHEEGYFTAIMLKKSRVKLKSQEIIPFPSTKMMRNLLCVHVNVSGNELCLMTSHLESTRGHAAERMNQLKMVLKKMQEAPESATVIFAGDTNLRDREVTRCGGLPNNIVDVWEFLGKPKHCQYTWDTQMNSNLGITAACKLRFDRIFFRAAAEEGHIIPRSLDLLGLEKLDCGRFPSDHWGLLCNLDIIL
Description: potency against TDP2 phosphodiesterase activity – biochemical, epi absorbance, IC50, dose response (AID 743297).

Test [4] concerns the target Glucose-6-phosphate 1-dehydrogenase (Homo sapiens, UniProt P11413). Description: inhibition of Homo sapiens G6PD, dose series – biochemical, fluorescence, selectivity assay for P. falciparum G6PD inhibitor project, dose response (AID 504792). In kind it is functional.
For the next test, the target named is Albumin (Bos taurus, UniProt P02769). Description: Counterscreen for inhibitors of T-cell receptor (TCR)-CD3 interaction: Fluorescence-based biochemical high throughput dose response assay to identify inhibitors of T-cell receptor (TCR)-CD3 interaction using a TAMRA-labeled BSA probe. The test is classed as functional. (In general: A counterscreen serves to expose hits that act by an unwanted route or on another target.)
Sequence of Albumin (P02769 whole entry): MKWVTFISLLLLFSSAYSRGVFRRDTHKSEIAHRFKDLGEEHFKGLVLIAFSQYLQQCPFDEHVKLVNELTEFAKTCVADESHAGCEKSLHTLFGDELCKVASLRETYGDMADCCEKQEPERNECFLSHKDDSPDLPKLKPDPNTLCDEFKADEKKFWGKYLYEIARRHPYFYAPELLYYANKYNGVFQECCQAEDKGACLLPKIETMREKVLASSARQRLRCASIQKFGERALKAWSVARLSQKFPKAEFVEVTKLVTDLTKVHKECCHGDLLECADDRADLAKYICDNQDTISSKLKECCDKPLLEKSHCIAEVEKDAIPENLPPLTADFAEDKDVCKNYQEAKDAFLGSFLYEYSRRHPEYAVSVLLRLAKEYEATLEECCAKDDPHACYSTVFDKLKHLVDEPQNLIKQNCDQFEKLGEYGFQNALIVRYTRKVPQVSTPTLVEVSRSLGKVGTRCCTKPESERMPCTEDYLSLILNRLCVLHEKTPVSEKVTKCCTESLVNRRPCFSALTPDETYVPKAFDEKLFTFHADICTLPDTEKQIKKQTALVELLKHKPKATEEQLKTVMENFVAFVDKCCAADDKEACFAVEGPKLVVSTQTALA

In the next test the target is Estrogen receptor beta (Homo sapiens, UniProt Q92731). The test can be described thus: blockers of SRC-3 recruitment to ERβ – biochemical, ELISA, streptavidin-HRP readout, orthogonal assay, confirmation (AID 1060). (In general: An ELISA detects its analyte on a solid surface through an enzyme-linked reagent.)
The target of test [5] is Ribosomal protein S6 kinase alpha-3 (Homo sapiens, UniProt P51812). The test is classed as functional.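 Further: measured within a kinome-wide profiling panel.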
For a further test, the target named is Aurora kinase B (Homo sapiens, UniProt Q96GD4). The test is classed as functional.
In test [6] the target is Hepatocyte growth factor receptor (Homo sapiens, UniProt P08581). In kind it is functional.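 Further: kinase panel profiling across the kinome, with MET as the panel member.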
Test [7] addresses RAC-alpha serine/threonine-protein kinase (Homo sapiens, UniProt P31749). In kind it is functional.
Test [8] concerns the target BDNF/NT-3 growth factors receptor (Homo sapiens, UniProt Q16620). The test is classed as functional.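 Further: NTRK2 measured as one member of a broad kinome-wide kinase profiling panel.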
The target of a further test is Ephrin type-A receptor 2 (Homo sapiens, UniProt P29317). In kind it is functional.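 Further: EPHA2 tested as one member of a kinome-wide kinase panel.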
Sequence of Ephrin type-A receptor 2 (P29317 whole entry): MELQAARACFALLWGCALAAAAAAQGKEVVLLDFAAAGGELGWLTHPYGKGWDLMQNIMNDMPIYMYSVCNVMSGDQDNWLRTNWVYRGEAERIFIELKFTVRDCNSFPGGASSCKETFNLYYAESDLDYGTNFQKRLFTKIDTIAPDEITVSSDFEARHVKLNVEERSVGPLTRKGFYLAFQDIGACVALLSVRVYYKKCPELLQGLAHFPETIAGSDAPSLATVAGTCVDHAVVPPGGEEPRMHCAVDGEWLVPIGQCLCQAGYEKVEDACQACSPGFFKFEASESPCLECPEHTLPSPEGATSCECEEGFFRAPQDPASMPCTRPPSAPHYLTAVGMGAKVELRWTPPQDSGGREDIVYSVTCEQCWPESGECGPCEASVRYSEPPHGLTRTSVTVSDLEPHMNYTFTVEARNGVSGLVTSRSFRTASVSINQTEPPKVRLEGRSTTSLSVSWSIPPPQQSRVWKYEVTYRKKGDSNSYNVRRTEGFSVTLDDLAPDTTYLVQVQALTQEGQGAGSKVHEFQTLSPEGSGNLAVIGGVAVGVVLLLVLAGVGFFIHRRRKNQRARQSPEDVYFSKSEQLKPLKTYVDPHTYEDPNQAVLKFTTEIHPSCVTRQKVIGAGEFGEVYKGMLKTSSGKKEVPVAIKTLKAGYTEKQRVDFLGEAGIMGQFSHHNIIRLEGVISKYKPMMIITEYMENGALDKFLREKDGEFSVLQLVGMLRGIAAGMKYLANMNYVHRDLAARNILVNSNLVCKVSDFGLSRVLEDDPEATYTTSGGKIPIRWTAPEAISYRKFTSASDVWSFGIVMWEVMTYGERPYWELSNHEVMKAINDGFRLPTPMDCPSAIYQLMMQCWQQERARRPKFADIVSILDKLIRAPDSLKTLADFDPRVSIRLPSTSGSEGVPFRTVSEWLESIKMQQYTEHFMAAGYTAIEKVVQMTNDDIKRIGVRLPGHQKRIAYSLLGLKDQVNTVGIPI
Test [9] concerns the target Mast/stem cell growth factor receptor Kit (Homo sapiens, UniProt P10721). In kind it is functional.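 Further: KIT entry within a kinase panel assay.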
Test [10] concerns the target Tyrosine-protein kinase ITK/TSK (Homo sapiens, UniProt Q08881). In kind it is functional.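 Further: affinity for ITK measured as one member of a broad kinase panel profiling binding across the kinome.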
In test [11] the target is Cyclin-dependent kinase 1 (Homo sapiens, UniProt P06493). In kind it is functional.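 Further: Kinome-wide panel profiling, with the target listed as panel member CDC2.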
Test [12] has as its target MAP kinase-activated protein kinase 3 (Homo sapiens, UniProt Q16644). The test is classed as functional.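 Further: value comes from a kinome-wide profiling panel in which MAPKAPK3 is one of the panel members.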
Test [13] deals with Fibroblast growth factor receptor 3 (Homo sapiens, UniProt P22607). The test is classed as functional.
For test [14], the target named is Proto-oncogene tyrosine-protein kinase ROS (Homo sapiens, UniProt P08922). In kind it is functional.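 Further: ROS1 tested as one member of a kinome-wide kinase panel.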
Another test deals with Aurora kinase A (Homo sapiens, UniProt O14965). In kind it is functional.
Test [15] has as its target Vascular endothelial growth factor receptor 2 (Homo sapiens, UniProt P35968). In kind it is functional.
Test [16] has as its target Dual specificity protein kinase CLK2 (Homo sapiens, UniProt P49760). The test is classed as functional.
Test [17] concerns the target Protein kinase C delta type (Homo sapiens, UniProt Q05655). The test is classed as functional.
For test [18], the target named is Macrophage colony-stimulating factor 1 receptor (Homo sapiens, UniProt P07333). In kind it is functional.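 Further: value comes from the Navigating the Kinome screening panel, CSF1R member.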
In test [19] the target is Casein kinase II subunit alpha (Homo sapiens, UniProt P68400). The test is classed as functional.
Test [20] addresses Receptor-type tyrosine-protein kinase FLT3 (Homo sapiens, UniProt P36888). In kind it is functional.
Test [21] concerns the target MAP kinase-activated protein kinase 2 (Homo sapiens, UniProt P49137). In kind it is functional.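 Further: measured as one member of a kinome-wide kinase panel.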
The target in test [22] is Testis-specific serine/threonine-protein kinase 2 (Homo sapiens, UniProt Q96PF2). In kind it is functional.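 Further: part of the Navigating the Kinome panel, target entry STK22B.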
Sequence of Testis-specific serine/threonine-protein kinase 2 (Q96PF2 whole entry): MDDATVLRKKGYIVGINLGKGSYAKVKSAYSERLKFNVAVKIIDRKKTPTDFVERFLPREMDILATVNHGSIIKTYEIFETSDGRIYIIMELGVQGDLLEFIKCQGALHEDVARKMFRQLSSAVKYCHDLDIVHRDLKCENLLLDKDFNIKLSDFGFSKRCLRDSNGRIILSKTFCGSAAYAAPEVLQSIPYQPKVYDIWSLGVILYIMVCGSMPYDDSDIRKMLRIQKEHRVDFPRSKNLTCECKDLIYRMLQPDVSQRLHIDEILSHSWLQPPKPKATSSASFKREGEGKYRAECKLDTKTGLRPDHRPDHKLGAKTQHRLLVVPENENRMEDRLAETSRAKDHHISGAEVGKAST
The target in test [23] is Serine/threonine-protein kinase D2 (Homo sapiens, UniProt Q9BZL6). The test is classed as functional.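 Further: measured against PRKD2 as one member of a kinome-wide kinase profiling panel.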
For test [24], the target named is Protein kinase C gamma type (Homo sapiens, UniProt P05129). In kind it is functional.
Test [25] addresses Vascular endothelial growth factor receptor 3 (Homo sapiens, UniProt P35916). The test is classed as functional.
The target of test [26] is Interleukin-1 receptor-associated kinase 1 (Homo sapiens, UniProt P51617). In kind it is functional.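 Further: IRAK1 tested as one member of a kinome panel.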
Test [27] addresses Receptor tyrosine-protein kinase erbB-4 (Homo sapiens, UniProt Q15303). In kind it is functional.
Test [28] deals with Mitogen-activated protein kinase 8 (Homo sapiens, UniProt P45983). The test is classed as functional.
Test [29] deals with Glycogen synthase kinase-3 alpha (Homo sapiens, UniProt P49840). In kind it is functional.
Test [30] has as its target Tyrosine-protein kinase receptor TYRO3 (Homo sapiens, UniProt Q06418). The test is classed as functional.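 Further: TYRO3 value obtained as one member of a kinome-wide profiling panel.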
For test [31], the target named is Serine/threonine-protein kinase BRSK1 (Homo sapiens, UniProt Q8TDC3). The test is classed as functional.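 Further: measured within a kinome-wide kinase panel, with the target listed as KIAA1811.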
The target in test [32] is Mitogen-activated protein kinase kinase kinase 20 (Homo sapiens, UniProt Q9NYL2). The test is classed as functional.
The nature of test [33]: viability of PTEN-deleted HCT116 cells – cell-based, HCT116 PTEN knockout, dose response (AID 1047).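 Further: HCT116 colon tumor cells with PTEN knocked out; cells exposed to compound for 60 hours before readout; potency for loss of cell viability measured by luminescence.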 In kind it is functional.
A further test deals with BJ. Description: cells. In kind it is functional, cell-based. The conditions noted are these: Homo sapiens.

Sequence of Mast/stem cell growth factor receptor Kit (P10721 whole entry): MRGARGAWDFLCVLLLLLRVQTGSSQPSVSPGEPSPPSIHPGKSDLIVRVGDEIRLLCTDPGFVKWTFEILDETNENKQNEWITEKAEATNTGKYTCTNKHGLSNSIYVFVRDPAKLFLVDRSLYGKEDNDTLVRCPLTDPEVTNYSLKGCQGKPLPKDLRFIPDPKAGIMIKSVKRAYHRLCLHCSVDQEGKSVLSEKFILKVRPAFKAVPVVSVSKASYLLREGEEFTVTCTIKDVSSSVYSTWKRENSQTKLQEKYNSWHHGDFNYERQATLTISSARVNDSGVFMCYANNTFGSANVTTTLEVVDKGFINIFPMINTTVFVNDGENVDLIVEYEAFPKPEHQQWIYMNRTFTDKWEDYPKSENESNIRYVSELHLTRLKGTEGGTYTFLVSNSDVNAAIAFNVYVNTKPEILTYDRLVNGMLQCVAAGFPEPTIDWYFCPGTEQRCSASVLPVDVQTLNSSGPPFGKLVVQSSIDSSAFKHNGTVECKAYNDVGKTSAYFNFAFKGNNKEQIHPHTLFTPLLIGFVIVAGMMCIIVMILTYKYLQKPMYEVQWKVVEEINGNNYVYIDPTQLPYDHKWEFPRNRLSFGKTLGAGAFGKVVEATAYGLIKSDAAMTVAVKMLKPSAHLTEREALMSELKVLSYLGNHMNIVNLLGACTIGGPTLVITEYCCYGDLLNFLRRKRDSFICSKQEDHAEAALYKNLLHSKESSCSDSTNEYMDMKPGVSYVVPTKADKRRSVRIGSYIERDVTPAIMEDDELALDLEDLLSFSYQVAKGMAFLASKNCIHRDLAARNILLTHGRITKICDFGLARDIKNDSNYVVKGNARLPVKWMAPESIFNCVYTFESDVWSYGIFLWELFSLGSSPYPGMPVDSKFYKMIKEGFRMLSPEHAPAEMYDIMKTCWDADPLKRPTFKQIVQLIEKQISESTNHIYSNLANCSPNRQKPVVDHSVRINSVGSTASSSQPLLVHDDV
Sequence of Receptor tyrosine-protein kinase erbB-4 (Q15303 whole entry): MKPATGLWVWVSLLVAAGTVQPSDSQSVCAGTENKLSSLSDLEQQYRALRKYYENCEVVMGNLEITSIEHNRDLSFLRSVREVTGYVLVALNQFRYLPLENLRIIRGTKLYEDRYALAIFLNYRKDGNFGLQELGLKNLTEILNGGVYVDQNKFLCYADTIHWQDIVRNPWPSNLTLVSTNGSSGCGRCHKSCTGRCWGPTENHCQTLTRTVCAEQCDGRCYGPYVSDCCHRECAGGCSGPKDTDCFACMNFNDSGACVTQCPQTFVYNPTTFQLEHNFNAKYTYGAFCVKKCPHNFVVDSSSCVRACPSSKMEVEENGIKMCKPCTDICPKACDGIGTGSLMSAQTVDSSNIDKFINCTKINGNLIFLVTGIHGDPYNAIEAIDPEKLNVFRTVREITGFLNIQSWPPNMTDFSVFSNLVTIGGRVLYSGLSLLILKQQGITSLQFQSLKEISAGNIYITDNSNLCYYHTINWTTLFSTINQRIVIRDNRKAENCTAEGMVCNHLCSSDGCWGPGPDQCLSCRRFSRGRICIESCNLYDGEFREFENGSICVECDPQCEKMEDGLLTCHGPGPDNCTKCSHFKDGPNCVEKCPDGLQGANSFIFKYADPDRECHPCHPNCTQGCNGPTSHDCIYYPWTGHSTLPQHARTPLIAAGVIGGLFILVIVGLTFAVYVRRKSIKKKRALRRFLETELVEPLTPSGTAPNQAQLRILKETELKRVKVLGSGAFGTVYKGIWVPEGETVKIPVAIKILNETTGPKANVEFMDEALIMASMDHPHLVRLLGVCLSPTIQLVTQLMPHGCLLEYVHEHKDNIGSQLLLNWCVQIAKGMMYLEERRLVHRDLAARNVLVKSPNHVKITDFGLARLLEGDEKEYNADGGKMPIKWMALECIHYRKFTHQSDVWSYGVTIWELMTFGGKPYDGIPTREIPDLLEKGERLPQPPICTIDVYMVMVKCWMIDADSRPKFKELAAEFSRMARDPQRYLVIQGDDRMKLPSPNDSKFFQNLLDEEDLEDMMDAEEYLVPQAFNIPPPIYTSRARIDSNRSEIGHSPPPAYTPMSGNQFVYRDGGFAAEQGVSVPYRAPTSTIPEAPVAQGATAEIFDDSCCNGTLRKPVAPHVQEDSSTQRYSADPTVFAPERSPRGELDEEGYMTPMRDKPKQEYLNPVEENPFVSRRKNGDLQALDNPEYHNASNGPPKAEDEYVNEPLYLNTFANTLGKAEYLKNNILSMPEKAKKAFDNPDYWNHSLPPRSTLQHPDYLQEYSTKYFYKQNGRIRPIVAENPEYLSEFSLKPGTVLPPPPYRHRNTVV
Sequence of BDNF/NT-3 growth factors receptor (Q16620 whole entry): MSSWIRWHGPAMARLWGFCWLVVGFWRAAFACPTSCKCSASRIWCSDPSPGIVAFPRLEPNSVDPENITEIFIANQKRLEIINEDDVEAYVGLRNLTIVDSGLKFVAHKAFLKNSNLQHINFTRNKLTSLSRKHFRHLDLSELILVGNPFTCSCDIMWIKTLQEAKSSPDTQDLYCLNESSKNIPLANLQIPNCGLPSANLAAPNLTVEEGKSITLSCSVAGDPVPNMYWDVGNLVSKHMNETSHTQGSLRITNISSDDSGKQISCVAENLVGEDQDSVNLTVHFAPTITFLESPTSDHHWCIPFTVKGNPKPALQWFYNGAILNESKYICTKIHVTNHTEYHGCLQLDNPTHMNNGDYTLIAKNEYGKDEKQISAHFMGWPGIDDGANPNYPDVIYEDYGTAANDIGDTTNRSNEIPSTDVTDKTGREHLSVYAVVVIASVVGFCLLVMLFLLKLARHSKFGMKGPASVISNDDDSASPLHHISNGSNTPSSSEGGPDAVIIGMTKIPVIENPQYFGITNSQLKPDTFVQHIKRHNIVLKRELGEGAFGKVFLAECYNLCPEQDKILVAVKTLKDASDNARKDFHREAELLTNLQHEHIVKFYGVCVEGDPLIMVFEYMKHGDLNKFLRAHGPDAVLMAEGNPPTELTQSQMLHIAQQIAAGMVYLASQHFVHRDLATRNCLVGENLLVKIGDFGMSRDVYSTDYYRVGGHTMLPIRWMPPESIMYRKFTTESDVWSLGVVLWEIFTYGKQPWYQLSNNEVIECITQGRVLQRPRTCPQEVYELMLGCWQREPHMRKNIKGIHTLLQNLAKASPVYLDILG

With `CC(=O)N(C1=C(Cl)C(=O)c2ccccc2C1=O)C1CCCCC1`, the concentration at half-maximal activity (AC50) in test [1] is 524 nM (active). Besides, the IC50 in [2] is 2030 nM (active); in test [3], 19500 nM (inactive).

In the case of `Oc1ccc(-c2cn3c(n2)SCC3)cc1O`, the IC50 was 41000 nM (inactive) in [4], > 94100 nM (inactive) at Albumin and 10700 nM (not active) at Estrogen receptor beta.

As for `O=C1Nc2ccc3ncsc3c2C1=CNc1ccc(S(=O)(=O)Nc2ccccn2)cc1`, the inhibitory constant (Ki) in [5] is 39.8 nM (active); on Aurora kinase B it was 3.98 nM (active); in [6], 200 nM (active); in [7], > 7940 nM (inactive); in test [8], 79.4 nM (active); on Ephrin type-A receptor 2, 794 nM (active). Also, the Ki in test [9] is > 1260 nM (inactive); in test [10], 126 nM (active); in [11] it was 20 nM (active); in test [12] it was 7940 nM (active); in test [13], 12.6 nM (active); in test [14] it was > 2000 nM (inactive). In addition, the Ki is 15.8 nM (active) at Aurora kinase A; 25.1 nM (active) in test [15]; 50.1 nM (active) in test [16]; 1260 nM (active) in [17]; 251 nM (active) in test [18]; 501 nM (active) in [19]. Further, the Ki was 3.16 nM (active) in test [20]; 1260 nM (active) in test [21]; > 1580 nM (inactive) in test [22]; 50.1 nM (active) in [23]; 1260 nM (active) in test [24]; 3.16 nM (active) in test [25]. Also, the inhibition constant Ki in [26] was 20 nM (active); in test [27], > 3980 nM (inactive); in test [28], 126 nM (active); in test [29], 3.98 nM (active); in test [30], 126 nM (active); in [31], 12.6 nM (active). Also, the Ki in test [32] was 200 nM (active).

For `Cc1ccc(NC2=C/C(=N\S(=O)(=O)c3cccs3)c3ccccc3C2=O)c(C)c1`, the EC50 in [33] was 1100 nM (active); in the test with BJ, 4150 nM (active).
